Usually Km stands for the concentration of substrate that gives half-maximal velocity.

The source of these data is patent publication US20040248769A1, “Enzyme inhibitors for inactivating allergens” (priority 2001, published 2004).

The subject of test [1] is Rabbit1 S1 fur extract proteolytic activity. Nature of the test: Proteolytic activity of fur extract against NHMec substrates. Format: biochemical, rabbit. As to conditions: sample Rabbit1 S1, 5 μM substrate, 37° C., pH 7.5. The method, then:
(§1) A clean pet brush was used to brush three common English domestic cats. Fur from guinea pigs, rabbit, dogs and horse was collected in the same way. A different brush was used for each species and between brushings these were cleaned thoroughly in a denaturing detergent solution (Fairy® detergent) and then ethanol. The brushings were transferred to a sterile universal container and extracted by shaking in an extraction buffer, 50 mM Tris.HCl, 5 mM CaCl2, pH 7.5 (0.1 g/ml). The solution was recovered by centrifugation and stored at −20° C. in aliquots. Saliva was collected from a mastiff-type dog and stored frozen in aliquots until assayed. […]
(§2) In the first series of experiments the sample (12 μl) was assayed against a range of serine and cysteine proteinase aminomethylcoumarylamide (NHMec) substrates (obtained commercially from Bachem) under standard conditions of 5 μM substrate concentration (from a 100-fold stock solution in dimethyl sulfoxide) to give a final volume of 120 μl. After addition of substrate the rate without sample was determined (which in all cases was zero), after which the sample was applied and the progress of the reaction was followed for a further 15 min. The slope obtained (fluorescence vs time) was analysed by linear regression and converted to rate of product formation (nM/min) see results table 2.

Test [2] has as its system Cat3 S1 fur extract proteolytic activity. The test is described as above. Format: biochemical, cat. As to conditions: sample Cat3 S1, 5 μM substrate, 37° C., pH 7.5. On the procedure:
(§3) A clean pet brush was used to brush three common English domestic cats. Fur from guinea pigs, rabbit, dogs and horse was collected in the same way. A different brush was used for each species and between brushings these were cleaned thoroughly in a denaturing detergent solution (Fairy® detergent) and then ethanol. The brushings were transferred to a sterile universal container and extracted by shaking in an extraction buffer, 50 mM Tris.HCl, 5 mM CaCl2, pH 7.5 (0.1 g/ml). The solution was recovered by centrifugation and stored at −20° C. in aliquots. Saliva was collected from a mastiff-type dog and stored frozen in aliquots until assayed. Sample aliquots were assayed for proteolytic activity using fluorometric blocked peptidylaminomethylcoumarylamide substrates in the cuvette of a Perkin Elmer fluorimeter at 37° C. The fluorimeter was standardised with a known concentration of methylcoumarin, and the assays were designed so that no more than 10% substrate hydrolysis occurred.
(§4) Assays were performed in assay buffer; 50 mM Tris.HCl, 5 mM CaCl2, 0.1% CHAPS, pH 7.5. Data were collected in real-time on a personal computer using the Flusys software package.
as §2

In test [3] the test system is Cat1 S3 fur extract proteolytic activity. Described as above. Format: biochemical, cat. As to conditions: sample Cat1 S3, 5 μM substrate, 37° C., pH 7.5. The method, then: as §3, §4, §2
Test [4] relates to Dog1 S2 saliva proteolytic activity. The experiment in a line: Proteolytic activity of saliva against NHMec substrates. As to conditions: sample Dog1 S2 (saliva), 5 μM substrate, 37° C., pH 7.5. Format: biochemical, dog. On the procedure: as §1, §2
In test [5] the test system is G. pig1 S1 fur extract proteolytic activity. The experiment in a line: Proteolytic activity of fur extract against NHMec substrates. As to conditions: sample G. pig1 S1, 5 μM substrate, 37° C., pH 7.5. Format: biochemical, guinea pig. The method, then: as §1, §2
Test [6] deals with G. pig2 S1 fur extract proteolytic activity. The description is as above. Format: biochemical, guinea pig. As to conditions: sample G. pig2 S1, 5 μM substrate, 37° C., pH 7.5. The method, then: as §1, §2
Test [7] relates to Dog1 S1 fur extract proteolytic activity. The description is as above. Format: biochemical, dog. As to conditions: sample Dog1 S1 (fur), 5 μM substrate, 37° C., pH 7.5. The method, then:
as §1, §2

The test system of the next test is cat fur enzyme(s). Nature of the test: Rates of cleavage at varying substrate concentration and Km. Format: biochemical. As to conditions: for Rate: cat fur sample. On the procedure:
as §2
A rough estimate of the Km for the cleavage of Z-Gly-Gly-Arg-NHMec and of Z-Phe-Arg-NHMec by the cat fur enzyme(s) were determined using the same procedure with varying concentrations of these substrates see results table 3.
As the activity follows normal Michaelis-Menten kinetics it is clear that it is due to the activity of one or more biological catalysts or enzymes.

Each structure is given as a SMILES string. Where a SMILES comes first, the peptide text is derived from it. The star is where a group is joined. AMC = Cc1cc(=O)oc2cc(N*)ccc12; Cbz = O=C(OCc1ccccc1)*

As for `Cc1cc(=O)oc2cc(NC(=O)C(CCCN=C(N)N)NC(=O)C(Cc3ccccc3)NC(=O)OCc3ccccc3)ccc12` (stereo not drawn) [Z-Phe-Arg-NHMec] (Cbz-Phe-Arg-{AMC}; configuration not given here), the Rate in test [1] was found to be 3.93 nM/min; in test [2], 24.5 nM/min; in test [3], 43.5 nM/min; in test [4], 1786.9 nM/min; in test [5] it was 9.11 nM/min; in test [6], 18.66 nM/min. Further, the Rate in test [7] stood at 40.6 nM/min; in the test on cat fur enzyme(s) ([Substrate] 0.5 μM), 3.74 nM/min; in the test with cat fur enzyme(s) ([Substrate] 1.0 μM), 6.99 nM/min; in the test on cat fur enzyme(s) ([Substrate] 2.0 μM) it was 10.2 nM/min; with cat fur enzyme(s) ([Substrate] 5 μM) it was 27.3 nM/min; in the test with cat fur enzyme(s) ([Substrate] 60 μM), 35.4 nM/min. Further, the Rate with cat fur enzyme(s) ([Substrate] 80 μM) was found to be 32.3 nM/min; in the test on cat fur enzyme(s) ([Substrate] 100 μM) it was 33.7 nM/min. For the same compound, in the test on cat fur enzyme(s) (non-linear regression, Enzfitter, rough estimate), the Km was 3.2 ± 0.9 µM.
